This is an account of results in US20210002725A1, “METHODS FOR THE DIAGNOSIS OF METABOLIC DISORDERS USING EPIMETABOLIC SHIFTERS, MULTIDIMENSIONAL INTRACELLULAR MOLECULES, OR ENVIRONMENTAL INFLUENCES” (Berg LLC, priority 2009, published 2021).

The subject of one data set is Caspase-3. The data set is described as follows: Western blot of Caspase-3 in Skmel-28 melanoma cells treated with CoQ10 building block components. In kind it is cell-based. The following applies: for Caspase-3 expression / apoptotic effect: all concentrations and time points tested. Here is the method:
(§1) Skmel-28 melanoma cells were cultured in DMEM/F12 supplemented with 5% Fetal Bovine Serum (FBS) and 1× final concentration of Antibiotics. The cells were grown to 85% confluency and treated with building block components for 3, 6, 12 and 24 hours. The cells were then pelleted and a Western blot analysis was performed.
(§2) In the Western Blot Analysis, the cells were pelleted in cold PBS, lysed, and the protein levels were quantified using a BCA protein assay. The whole cell lysate was loaded in a 4% loading 12% running Tris-HCl gel. The proteins were then transferred to a nitrocellulose paper then blocked with a 5% milk Tris-buffered solution for 1 hour. The proteins were then exposed to primary antibodies (Bcl-2 and Caspase-3) overnight. The nitrocellulose paper was then exposed to Pico Chemilluminescent for 5 min and the protein expression was recorded. After exposure, actin was quantified using the same method. Using ImageJ the levels of protein expression were quantified. A t-Test was used to analyze for statistical significance.

The subject of another data set is Bcl-2. The data set is described as follows: Western blot of Bcl-2 in Skmel-28 melanoma cells treated with CoQ10 building block components. In kind it is cell-based. Here is the method: as §1, §2
(Immunoblotting shows a protein as a band on a membrane.)

In a further data set the test system is tumor cells. Conditions: cited from earlier work.
A further data set deals with HDFa cells. The data set is described as follows: SeaHorse XF analyzer OCR and ECAR. The format is cell-based, human. An excerpt: Environmental influencers (e.g., MIMs or Epi-shifters) may also be identified by changes in cellular energetics. One example of the measurement of cellular energetics are the real-time measures of the consumption of molecular oxygen and/or the change in pH of the media of a cell culture. For example, the ability of a potential epi-shifter to modulate the metabolic state of a cell may be analyzed using, for example, the XF24 Analyzer (Seahorse, Inc.). This technology allows for real time detection of oxygen and pH changes in a monolayer of cells in order to evaluate the bioenergetics of a cell microenvironment. The XF24 Analyzer measures and compares the rates of oxygen consumption (OCR), which is a measure of aerobic metabolism, and extracellular acidification (ECAR), which is a measure of glycolysis, both key indicators of cellular energetics.
(SeaHorse Biosciences Inc, North Billerica, Mass.).
In this experiment, the OCR and extracellular acidification rate (ECAR) in normal cells lines were obtained in the presence and absence of CoQ10 to determine baseline values. It was observed that in its native nutrient environment, the basal OCR rates in normal cells lines are different, and are usually a function of the physiological roles of the cells in the body.
For example, one set of experiments were conducted using the non-cancerous cell line HDFa, which is a human adult dermal fibroblast cell line. Fibroblasts are cells that primarily synthesize and secrete extracellular matrix (ECM) components and collagen that form the structural framework (stroma) for tissues. In addition, fibroblasts are known to serve as tissue ambassadors of numerous functions such as wound healing and localized immnomodulation. Under normal physiological conditions, energy requirements in normal fibroblasts are met using a combination of glycolysis and oxidative phosphorylation—the glycolysis providing the necessary nutrients for synthesis of ECM.
FIGS. 29 and 30 describe the OCR in HDFa and HASMC cells grown in physiologically normal glucose (about 4.6 mM) and high glucose (hyperglycemic) conditions.

In data set [1] the test system is neonatal fibroblast cells. The data set is described as follows: Cell proliferation assay (coulter counter). The format is cell-based. Conditions: HB 500 nM, 5 μM, 25 μM alone and with benzoquinone 25, 50, 100 μM; 24 hours.
Description: A cell proliferation assay was also performed on neonatal fibroblast cells. The concentrations of HB tested were 500 nM, 5 μM, and 25 μM. HB was also tested in combination with benzoquinone at a concentrations of 25 μM, 50 μM, and 100 μM. […] The cells were trypsinized and quantified using a coulter counter.
For another data set, the system named is Melanoma cells. Put plainly: Cell proliferation assay (live cell count) of building block combinations. In kind it is cell-based. As for the experimental part: Cell Proliferation Assay of the Combination of 4-Hydroxy-Benzoate with Benzoquinone: This set of experiments used a cell proliferation assay to assess the effect of combining different building block molecules on cell proliferation.
The first study examined the effect of combining 4-Hydroxy-Benzoate with Benzoquinone. Cells were incubated for 48 hours, after which a cell count was performed for the live cells. Each test group was compared to the control, and each combination groups were compared to Benzoquinone control. The compounds were statistically analyzed for the addition of Benzoquinone.
Additional studies were performed testing additional molar ratios. For the first test 4-Hydroxybenzoic were tested at concentrations of 500 nM, 1 μM, and 50 μM. These concentrations were tested in combination with 2,3-Dimethoxy-5-methyl-p-benzoquinone (Benzo). The concentration of Benzo tested were 25 μM, 50 μM, and 100 μM. Melanoma cells were grown to 80% confluency and seeded in 6 well plates at a concentration of 40K cells per well. The cells were treated with CoQ10, 4-Hydroxybenzoate, Benzo, and a combination of 4-Hydroxybenzoate/Benzo.
A T-test was performed with p<0.05 as statistically significant.

Setting [2] is: all concentrations and time points tested.
Setting [3] is: 24 hours, concentration not given.

As for `COc1cc(C(O)C(=O)O)ccc1O` (centres unmarked) [3-methoxy-4-hydroxymandelate], the “Caspase-3 expression / apoptotic effect” value in the data set on Caspase-3 is “no statistically significant apoptotic effect”. The Bcl-2 expression entry in the data set on Bcl-2 (setting [2]) is recorded as “downward trend”.
Consider `C=C1/C(=C\C=C2/CCC[C@]3(C)[C@@H]([C@H](C)CCCC(C)(C)O)CC[C@@H]23)C[C@@H](O)C[C@@H]1O` [Vitamin D3, 1α, 25-dihydroxyvitamin D3], for which, in the data set on tumor cells (Deeb et al. 2007), the “expression of anti-apoptotic proteins BCL2 and BCL-XL” value was “repressing the expression”; the “expression of pro-apoptotic proteins (BAX, BAK, BAD)” value is recorded as “inducing the expression”; the “gene transcription of p21WAFI/CIPI” value was “induce gene transcription”. In addition, in the data set with tumor cells (Masuda and Jones 2006), the “expression of VEGF” value is listed as “inhibit the expression” and the “proliferation of tumor-derived endothelial cells” value is “inhibit the proliferation”.
Take `N[C@@H](Cc1ccccc1)C(=O)O` [L-Phenylalanine]: the Bcl-2 expression result in the data set with Bcl-2 (100 μM, 3 hours) is “statistically significant decrease”; in the data set with Bcl-2 (100 μM, 12 hours), “statistically significant decrease”.
In the case of `COc1cc(C(=O)O)ccc1O` [Vanillic acid], the Bcl-2 expression entry in the data set with Bcl-2 (500 nM, 24 hours) is on record as “significantly reduce”; in the data set with Bcl-2 (5 μM, 24 hours), “significantly reduce”.
Regarding `C[C@@](O)(CCO)CC(=O)O` [Mevalonic Acid], the “Caspase-3 expression / apoptotic effect” value in the data set on Caspase-3 is “no significant reduction in Bcl-2 expression or an increase in Caspase-3 expression”. In addition, the Bcl-2 expression result in the data set with Bcl-2 (setting [2]) is “no significant reduction”.
As to `NC(Cc1ccc(O)cc1)C(=O)O` (racemic) [DL-Tyrosine], the Caspase-3 expression entry with Caspase-3 (5 μM, 12 hours) was “increase”; in the data set with Caspase-3 (15 μM, 12 hours), “increase”. Besides, the Bcl-2 expression entry is listed as “statistical decrease” in the data set with Bcl-2 (1 μM, 12 hours); “statistical decrease” with Bcl-2 (5 μM, 24 hours); “statistical decrease” in the data set with Bcl-2 (15 μM, 12 hours).
With `COC1=C(OC)C(=O)C(C/C=C(\C)CC/C=C(\C)CC/C=C(\C)CC/C=C(\C)CC/C=C(\C)CC/C=C(\C)CC/C=C(\C)CC/C=C(\C)CC/C=C(\C)CCC=C(C)C)=C(C)C1=O` [compound 31510], the ECAR worked out at 5 mpH/min in the data set on HDFa cells (Hypoxia (5.5 mM), 50 μM); 5 mpH/min in the data set on HDFa cells (Hypoxia (5.5 mM), 100 μM); 6 mpH/min in the data set on HDFa cells (Hypoxia (22 mM), 50 μM); 8 mpH/min in the data set on HDFa cells (Hypoxia (22 mM), 100 μM); 6 mpH/min with HDFa cells (Normoxia (5.5 mM), 50 μM); 6 mpH/min in the data set on HDFa cells (Normoxia (5.5 mM), 100 μM). Besides, the ECAR was found to be 5 mpH/min in the data set with HDFa cells (Normoxia (22 mM), 50 μM) and 5 mpH/min in the data set with HDFa cells (Normoxia (22 mM), 100 μM).
For the molecule `O=C(O)C(=O)Cc1ccc(O)cc1` [4-Hydroxy-phenylpyruvate], the Caspase-3 expression entry in the data set on Caspase-3 (5 μM, 12 hours) was “significant increase”; with Caspase-3 (15 μM, 12 hours), “significant increase”. For the same molecule, the Bcl-2 expression entry in the data set with Bcl-2 (5 μM, 24 hours) is “significant reduction”; with Bcl-2 (15 μM, 24 hours), “significant reduction”.
As to `O=C(O)c1ccc(O)cc1` [4-Hydroxybenzoate], in data set [1], the “reduction in fibroblast cells” value is reported as “did not show a significant reduction”. Further, the “cell number vs control” value in the data set with Melanoma cells (48 hours incubation) is on record as “significant decrease in cell number”. The “cell proliferation vs control” value with Melanoma cells (additional molar ratios, HB 500 nM, 1 μM, 50 μM) was “significant decrease in cell proliferation”.
For the molecule `CC(=O)NCC(=O)O` [Acetylglycine], the Bcl-2 expression entry with Bcl-2 (5 μM, 12 hours) is recorded as “significant decrease”; with Bcl-2 (25 μM, 12 hours), “significant decrease”; in the data set on Bcl-2 (100 μM, 24 hours) it was “significant decrease”.
Consider `N[C@@H](Cc1ccc(O)cc1)C(=O)O` [L-Tyrosine], for which the Bcl-2 expression entry in the data set with Bcl-2 (500 μM, 24 hours) was “statistically significant decrease”.
Turning to `N[C@H](Cc1ccc(O)cc1)C(=O)O` [D-Tyrosine], the Caspase-3 expression entry with Caspase-3 (1 μM, 12 hours) is given as “increase”; with Caspase-3 (1 μM, 24 hours), “increase”; in the data set on Caspase-3 (5 μM, 3 hours), “significantly increased”; with Caspase-3 (5 μM, 12 hours) it was “significantly increased”; in the data set with Caspase-3 (5 μM, 24 hours) it was “significantly increased”. The Bcl-2 expression result with Bcl-2 (5 μM, 12 hours) is “reduction”; with Bcl-2 (5 μM, 24 hours) it was “reduction”; in the data set with Bcl-2 (15 μM, 12 hours), “reduction”; with Bcl-2 (15 μM, 24 hours) it was “reduction”.
As for `CC(=O)SCCNC(=O)CCNC(=O)[C@H](O)C(C)(C)COP(=O)(O)OP(=O)(O)OC[C@H]1O[C@@H](n2cnc3c(N)ncnc32)[C@H](O)[C@@H]1OP(=O)(O)O` [Acetyl-CoA], in the data set on Caspase-3, the “Caspase-3 expression / apoptotic effect” value is “no significant observed reduction in Bcl-2 or increase in Caspase-3 expression”. The Bcl-2 expression result in the data set with Bcl-2 (setting [2]) is on record as “no significant observed reduction”.
Take `CC(C)(CO)[C@@H](O)C(=O)NCCCO` [Panthenol]: in the data set with Bcl-2 (25 μM, time not stated), the Bcl-2 expression entry is listed as “significant reduction”.
As to `N[C@H](Cc1ccccc1)C(=O)O` [D-Phenylalanine], the Caspase-3 expression result in the data set on Caspase-3 (5 μM, 6 hours) is reported as “significant increase”; in the data set with Caspase-3 (100 μM, 6 hours), “significant increase”. For the same molecule, the Bcl-2 expression entry in the data set with Bcl-2 (5 μM, 3 hours) is “significant reduction”; in the data set on Bcl-2 (5 μM, 6 hours) it was “significant reduction”; in the data set with Bcl-2 (25 μM, 3 hours) it was “significant reduction”; in the data set with Bcl-2 (25 μM, 6 hours), “significant reduction”; with Bcl-2 (100 μM, 6 hours), “significant reduction”.
With `Cc1ncc(CO)c(CO)c1O` [Pyridoxine], the Bcl-2 expression entry in the data set with Bcl-2 (setting [3]) was “significant reduction”.
Turning to `NC(Cc1ccccc1)C(=O)O` (racemic) [DL-Phenylalanine], the Caspase-3 expression result in the data set on Caspase-3 (3 hours, concentration not given) is “statistically significant increase”. In addition, the Bcl-2 expression result with Bcl-2 (setting [3]) is listed as “statistically significant decrease”.
